Results reported in patent publication US20090123581A1, “COLLAGEN CROSS-LINKING AGENTS ON DENTAL RESTORATIVE TREATMENT AND PREVENTIVE DENTISTRY” (THE BOARD OF TRUSTEES OF THE UNIVERSITY OF ILLINOIS, priority 2006, published 2009).

Legend:
[1] = Tensile bond strength (TBS) of a total-etch adhesive with or without proteolytic challenge (Example 5); set-up: species or system human; details: for TBS (tensile bond strength): 5% glutaraldehyde 1 hour after etching, One-Step adhesive
Protocol: To evaluate the effect of glutaraldehyde on the tensile bond strength (TBS) of a total-etch adhesive with or without proteolytic challenge, the experiment described below was performed.
Ten human molars were polished until occlusal dentin was exposed and were divided according to the surface treatment: a control (no treatment) treatment (G1) and a 5% glutaraldehyde treatment (G2). Samples of G1 were etched with 37% phosphoric acid, rinsed, blotted dried, and One-Step (Bisco, Richmond, BC, Canada) was applied, followed by application of a composite resin used to build-up a “crown.” G2 was treated in the same manner, except that after etching, 5% glutaraldehyde was applied on the surface for 1 hour. After 24 hours, samples were sectioned into 1.0×1.0 mm beams. The beams were subdivided according to the proteolytic challenge: stored in water for 2 hours (no challenge) and stored in 1.5% NaOCl solution for 2 hours. Then samples were rinsed and tested in tensile at a crosshead speed of 1 mm/min using a universal testing machine. Data were statistically analyzed using ANOVA and Fisher's PLSD tests (p<0.05).

[2] = Microtensile bond strength of adhesive restoration to caries-affected dentin (Example 2); set-up: species or system human; details: caries-affected demineralized dentin; 5% glutaraldehyde for 5 minutes; versus control
Protocol: Effect of an exogenous collagen cross-linking agent on dentin bonding: In order to analyze the contribution of exogenous collagen cross-linking to sound and caries-affected dentin bonding, demineralized dentin surfaces were treated with 5% glutaraldehyde and the restored specimens were subjected to microtensile bond strength testing.
Specimen preparation: Six human molars stored frozen (−20° C.) for less then one month were used. The teeth presented occlusal caries in which enamel was visually intact. The teeth were thawed, cleaned of adhering soft tissues, and the occlusal surfaces were ground flat with #320 and #600 grit Silicon Carbide (Sic) papers under running water to remove the enamel and expose flat middle dentin, respectively. […]
Microtensile bond test (MTB): After 24 hrs in water at 37° C., the teeth were sectioned into 0.7±0.2 mm thick slabs, and the interfaces trimmed to an hourglass shape using a fine diamond bur to produce a cross-sectional area of 1 mm^2. The thickness of the slabs and the width of the trimmed surface were measured using a digital caliper (Fisher Scientific, New Jersey, N.J.) and specimens in sound and caries-affected dentin were obtained. […] MPa were determined by dividing the fracture load by the cross-sectional area of the interface.

O=CCCCC=O [GD, glutaraldehyde]
TBS (tensile bond strength) ([1]; No challenge (water 2 hours)): 71.11 (12.20)A MPa | TBS (tensile bond strength) ([1]; stored in 1.5% NaOCl 2 hours): 65.91 (18.06)AB MPa | change in TBS values after NaOCl storage ([1]; 5% glutaraldehyde, 1.5% NaOCl 2 hours): not significantly affected | increase in the bond strength values [2]: 35%
